Experimental data: ChEMBL document CHEMBL1139152, “Epoxygenase eicosanoids: synthesis of tetrahydrofuran-diol metabolites and their vasoactivity” (Bioorg Med Chem Lett, 2007)
Active and inactive are the calls of the source. The rule behind the calls is not given here.

Tests used:
[1] = Vasodilatory activity assessed as relaxation of U46619-induced contraction of bovine coronary arteries; type: functional; conditions: Bos taurus; Coronary artery
[2] = Vasodilatory activity assessed as relaxation of U46619-induced contraction of bovine coronary arteries at 10 nM to 10 uM; type: functional, tissue-based; conditions: Bos taurus, Coronary artery

Structure (SMILES) | ED50 [1] | Activity [2]
CCCCC/C=C\C[C@H]1O[C@H]([C@H](O)C/C=C\CCCC(=O)O)C[C@H]1O | 3 µM | Active
CCCCCC1OC1C/C=C/C/C=C/C/C=C/CCCC(=O)O (centres undefined) | 2.5 µM | Active
CCCCC/C=C\C[C@H]1O[C@H]([C@@H](O)C/C=C\CCCC(=O)O)C[C@@H]1O |  | Active
CCCCC/C=C\C[C@H]1O[C@H]([C@@H](O)C/C=C\CCCC(=O)O)C[C@H]1O |  | Active
CCCCC/C=C\C[C@@H]1O[C@H]([C@H](O)C/C=C\CCCC(=O)O)C[C@H]1O |  | Active
CCCCC/C=C\C[C@@H]1O[C@H]([C@H](O)C/C=C\CCCC(=O)O)C[C@@H]1O |  | Active
CCCCC/C=C\C[C@H]1O[C@H]([C@H](O)C/C=C\CCCC(=O)O)C[C@@H]1O |  | Active
